The values that follow are results of earlier work, collected in patent publication US9192159B2, “Azoxystrobin formulations” (priority 2006, dated 2015).

As for `CO/C=C(/C(=O)OC)c1ccccc1Oc1cc(Oc2ccccc2C#N)ncn1` [Azoxystrobin], the Solubility in water result is listed as “low solubility in water”.
